In patent EP0313782A2, “Antimycotic preparations” (BAYER AG, priority 1987, dated 1989):

Test system: Candida-Zellen
Assay: Antimycotic in vivo efficacy (oral) in mouse candidiasis
Set-up: species or system Mäuse vom Typ SPF-CF₁
Conditions: for Wirkung: mice infected i.v. with 1 - 2 x 10⁶ Candida cells, oral treatment 1 h before and 7 h after infection, 10 - 100 mg/kg each, survivors on day 6 p.i. (untreated controls about 5 %); for Wirkung (comparison with the known compounds (A) and (B)): same test, statement in words in the text
Description: Antimykotische in-vivo-Wirksamkeit (oral) bei Mäusecandidose
Mäuse vom Typ SPF-CF₁ wurden intravenös mit 1 - 2 x 10⁶ logarithmisch wachsenden Candida-Zellen, die in physiologischer Kochsalzlösung suspendiert werden, infiziert. Eine Stunde vor und sieben Stunden nach der Infektion werden die Tiere mit jeweils 10 - 100 mg/kg Körpergewicht der Präparate oral behandelt.
Unbehandelte Tiere starben 3 bis 6 Tage post infektionem. Die Überlebensrate am 6.Tag post infektionem betrug bei unbehandelten Kontrolltieren etwa 5 %.

Compound	Wirkung	Wirkung (comparison with the known compounds (A) and (B))
OC(Cn1cncn1)(c1ccc(F)cc1F)C1(SC(F)(F)F)CC1 (stereo not drawn) [I-1, 1-(2,4-Difluorphenyl)-1-hydroxy-2-(1,2,4-triazol-1-yl)-1-(1-trifluormethylmercapto-cycloprop-1-yl)-ethan]	+++++ (sehr gute Wirkung = 90 % Überlebende am 6.Tag.p.i.)	bessere Wirkung
OC(Cn1cncn1)(c1ccc(F)cc1)C1(SC(F)(F)F)CC1 (stereo not drawn) [I-4]	+++++ (sehr gute Wirkung = 90 % Überlebende am 6.Tag.p.i.)	bessere Wirkung
[O-][S+](C(F)(F)F)C1(C(O)(Cn2cncn2)c2ccc(F)cc2F)CC1 (stereo not drawn) [I-2, 1-(2,4-Difluorphenyl)-1-hydroxy-2-(1,2,4-triazol-1-yl)-1-(trifluormethylsulfoxy-cycloprop-1-yl)-ethan]	+++++ (sehr gute Wirkung = 90 % Überlebende am 6.Tag.p.i.)	bessere Wirkung
